Test results: publication PMC11240139, “Exploring the antitumor potential of novel quinoline derivatives via tubulin polymerization inhibition in breast cancer; design, synthesis and molecular docking” (RSC Advances, 2024)

Assays:
[1] = test system: MDA-MB-231/ATCC (breast cancer); test: NCI-60 SRB cytotoxicity screen; assay type: cell-based; conditions: Homo sapiens, MDA-MB-231, read-out: growth inhibition (GI%)
[2] = test system: SN12C (renal cancer); test: NCI-60 SRB cytotoxicity screen; assay type: cell-based; conditions: Homo sapiens, single dose 10 μM, read-out: growth inhibition (GI%)
[3] = test system: OVCAR-8 (ovarian cancer); test: NCI-60 SRB cytotoxicity screen; assay type: cell-based; conditions: Homo sapiens; OVCAR-8, single dose 10 μM; read-out: growth inhibition (GI%)
[4] = test system: EKVX (non-small cell lung cancer); test: NCI-60 SRB cytotoxicity screen; assay type: cell-based; conditions: Homo sapiens, single dose 10 μM, read-out: growth inhibition (GI%)
[5] = test system: CAKI-1 (renal cancer); test: NCI-60 SRB cytotoxicity screen; assay type: cell-based; conditions: Homo sapiens; CAKI-1, single dose 10 μM; read-out: growth inhibition (GI%)
[6] = test system: 786-0 (renal cancer); test: NCI-60 SRB cytotoxicity screen; assay type: cell-based; conditions: Homo sapiens; 786-0, single dose 10 μM; read-out: growth inhibition (GI%)
[7] = test system: A549/ATCC (non-small cell lung cancer); test: NCI-60 SRB cytotoxicity screen; assay type: cell-based; conditions: Homo sapiens, single dose 10 μM, read-out: growth inhibition (GI%)
[8] = test system: NCI-H226 (non-small cell lung cancer); test: NCI-60 SRB cytotoxicity screen; assay type: cell-based; conditions: Homo sapiens; NCI-H226, single dose 10 μM; read-out: growth inhibition (GI%)
[9] = test system: UO-31 (renal cancer); test: NCI-60 SRB cytotoxicity screen; assay type: cell-based; conditions: Homo sapiens; UO-31, single dose 10 μM; read-out: growth inhibition (GI%)
[10] = test system: HT29 (colon cancer); test: NCI-60 SRB cytotoxicity screen; assay type: cell-based; conditions: Homo sapiens, HT-29; HT29, single dose 10 μM; read-out: growth inhibition (GI%)
[11] = test system: MOLT-4 (leukemia); test: NCI-60 SRB cytotoxicity screen; assay type: cell-based; conditions: Homo sapiens; MOLT-4, single dose 10 μM; read-out: growth inhibition (GI%)
[12] = test system: OVCAR-5 (ovarian cancer); test: NCI-60 SRB cytotoxicity screen; assay type: cell-based; conditions: Homo sapiens; OVCAR-5, single dose 10 μM; read-out: growth inhibition (GI%)
[13] = test system: LOX IMVI (melanoma); test: NCI-60 SRB cytotoxicity screen; assay type: cell-based; conditions: Homo sapiens, single dose 10 μM, read-out: growth inhibition (GI%)
[14] = test system: SW-620 (colon cancer); test: NCI-60 SRB cytotoxicity screen; assay type: cell-based; conditions: Homo sapiens; SW-620, single dose 10 μM; read-out: growth inhibition (GI%)
[15] = test system: NCI-H460 (non-small cell lung cancer); test: NCI-60 SRB cytotoxicity screen; assay type: cell-based; conditions: Homo sapiens; NCI-H460, single dose 10 μM; read-out: growth inhibition (GI%)
[16] = test system: M14 (melanoma); test: NCI-60 SRB cytotoxicity screen; assay type: cell-based; conditions: Homo sapiens; M14, single dose 10 μM; read-out: growth inhibition (GI%)
[17] = test system: UACC-257 (melanoma); test: NCI-60 SRB cytotoxicity screen; assay type: cell-based; conditions: Homo sapiens; UACC-257, single dose 10 μM; read-out: growth inhibition (GI%)
[18] = test system: MDA-MB-435 (melanoma); test: NCI-60 SRB cytotoxicity screen; assay type: cell-based; conditions: Homo sapiens, MDA-MB-435, read-out: growth inhibition (GI%)
[19] = test system: TK-10 (renal cancer); test: NCI-60 SRB cytotoxicity screen; assay type: cell-based; conditions: Homo sapiens; TK-10, single dose 10 μM; read-out: growth inhibition (GI%)
[20] = test system: CCRF-CEM (leukemia); test: NCI-60 SRB cytotoxicity screen; assay type: cell-based; conditions: Homo sapiens, single dose 10 μM, read-out: growth inhibition (GI%)
[21] = test system: NCI-H322M (non-small cell lung cancer); test: NCI-60 SRB cytotoxicity screen; assay type: cell-based; conditions: Homo sapiens, single dose 10 μM, read-out: growth inhibition (GI%)
[22] = test system: SF-539 (CNS cancer); test: NCI-60 SRB cytotoxicity screen; assay type: cell-based; conditions: Homo sapiens; SF-539, single dose 10 μM; read-out: growth inhibition (GI%)
[23] = test system: MALME-3M (melanoma); test: NCI-60 SRB cytotoxicity screen; assay type: cell-based; conditions: Homo sapiens, single dose 10 μM, read-out: growth inhibition (GI%)
[24] = test system: SK-OV-3 (ovarian cancer); test: NCI-60 SRB cytotoxicity screen; assay type: cell-based; conditions: Homo sapiens; SK-OV-3, single dose 10 μM; read-out: growth inhibition (GI%)
[25] = test system: A498 (renal cancer); test: NCI-60 SRB cytotoxicity screen; assay type: cell-based; conditions: Homo sapiens; A498, single dose 10 μM; read-out: growth inhibition (GI%)
[26] = test system: HCT-15 (colon cancer); test: NCI-60 SRB cytotoxicity screen; assay type: cell-based; conditions: Homo sapiens; HCT-15, single dose 10 μM; read-out: growth inhibition (GI%)
[27] = test system: OVCAR-4 (ovarian cancer); test: NCI-60 SRB cytotoxicity screen; assay type: cell-based; conditions: Homo sapiens; OVCAR-4, single dose 10 μM; read-out: growth inhibition (GI%)
[28] = test system: HOP-92 (non-small cell lung cancer); test: NCI-60 SRB cytotoxicity screen; assay type: cell-based; conditions: Homo sapiens; HOP-92, single dose 10 μM; read-out: growth inhibition (GI%)
[29] = test system: SNB-75 (CNS cancer); test: NCI-60 SRB cytotoxicity screen; assay type: cell-based; conditions: for inhibition at 10 µM: Homo sapiens, SNB-75, SNB-75, single dose 10 μM, read-out: growth inhibition (GI%)
[30] = test system: SK-MEL-2 (melanoma); test: NCI-60 SRB cytotoxicity screen; assay type: cell-based; conditions: Homo sapiens; SK-MEL-2, single dose 10 μM; read-out: growth inhibition (GI%)
[31] = test system: ACHN (renal cancer); test: NCI-60 SRB cytotoxicity screen; assay type: cell-based; conditions: Homo sapiens, single dose 10 μM, read-out: growth inhibition (GI%)
[32] = test system: U251 (CNS cancer); test: NCI-60 SRB cytotoxicity screen; assay type: cell-based; conditions: Homo sapiens, U-251; U251, single dose 10 μM; read-out: growth inhibition (GI%)
[33] = test system: NCI/ADR-RES (ovarian cancer); test: NCI-60 SRB cytotoxicity screen; assay type: cell-based; conditions: Homo sapiens, single dose 10 μM, read-out: growth inhibition (GI%)
[34] = test system: PC-3 (prostate cancer); test: NCI-60 SRB cytotoxicity screen; assay type: cell-based; conditions: PC-3, single dose 10 μM; read-out: growth inhibition (GI%)
[35] = test system: SF-295 (CNS cancer); test: NCI-60 SRB cytotoxicity screen; assay type: cell-based; conditions: Homo sapiens; SF-295, single dose 10 μM; read-out: growth inhibition (GI%)

CCc1cccc2cc(C=CC(=O)c3ccc(F)cc3)c(Cl)nc12 [Compound 3d, 3-(2-Chloro-8-ethylquinolin-3-yl)-1-(4-fluorophenyl)prop-2-en-1-one]
inhibition at 10 µM [1]: < 10%
inhibition at 10 µM [2]: < 10%
inhibition at 10 µM [3]: < 10%
inhibition at 10 µM [4]: < 10%
inhibition at 10 µM [5]: 11.8%
inhibition at 10 µM [6]: < 10%
inhibition at 10 µM [7]: < 10%
inhibition at 10 µM [8]: < 10%
inhibition at 10 µM [9]: < 10%
inhibition at 10 µM [10]: < 10%
inhibition at 10 µM [11]: < 10%
inhibition at 10 µM [12]: < 10%
inhibition at 10 µM [13]: < 10%
inhibition at 10 µM [14]: < 10%
inhibition at 10 µM [15]: < 10%
melting point: 215 to 217 °C
inhibition at 10 µM [16]: < 10%
inhibition at 10 µM [17]: < 10%
inhibition at 10 µM [18]: < 10%
inhibition at 10 µM [19]: < 10%
inhibition at 10 µM [20]: < 10%
inhibition at 10 µM [21]: < 10%
inhibition at 10 µM [22]: 11%
inhibition at 10 µM [23]: < 10%
inhibition at 10 µM [24]: < 10%
inhibition at 10 µM [25]: < 10%
inhibition at 10 µM [26]: < 10%
inhibition at 10 µM [27]: < 10%
inhibition at 10 µM [28]: < 10%
inhibition at 10 µM [29]: < 10%
inhibition at 10 µM [30]: < 10%
inhibition at 10 µM [31]: < 10%
inhibition at 10 µM [32]: < 10%
inhibition at 10 µM [33]: < 10%
inhibition at 10 µM [34]: < 10%
inhibition at 10 µM [35]: < 10%

CCc1cccc2cc(C=CC(=O)c3ccc(Br)cc3)c(Cl)nc12 [Compound 3e, 1-(4-Bromophenyl)-3-(2-chloro-8-ethylquinolin-3-yl)prop-2-en-1-one]
inhibition at 10 µM [1]: < 10%
inhibition at 10 µM [2]: < 10%
inhibition at 10 µM [3]: < 10%
inhibition at 10 µM [4]: < 10%
inhibition at 10 µM [5]: 12.8%
inhibition at 10 µM [6]: < 10%
inhibition at 10 µM [7]: < 10%
inhibition at 10 µM [8]: < 10%
inhibition at 10 µM [9]: < 10%
inhibition at 10 µM [10]: < 10%
inhibition at 10 µM [11]: < 10%
inhibition at 10 µM [12]: < 10%
inhibition at 10 µM [13]: < 10%
inhibition at 10 µM [14]: < 10%
inhibition at 10 µM [15]: < 10%
melting point: 210 to 212 °C
inhibition at 10 µM [16]: < 10%
inhibition at 10 µM [17]: < 10%
inhibition at 10 µM [18]: < 10%
inhibition at 10 µM [19]: < 10%
inhibition at 10 µM [20]: < 10%
inhibition at 10 µM [21]: < 10%
inhibition at 10 µM [22]: < 10%
inhibition at 10 µM [23]: < 10%
inhibition at 10 µM [24]: < 10%
inhibition at 10 µM [25]: < 10%
inhibition at 10 µM [26]: < 10%
inhibition at 10 µM [27]: < 10%
inhibition at 10 µM [28]: < 10%
inhibition at 10 µM [29]: < 10%
inhibition at 10 µM [30]: < 10%
inhibition at 10 µM [31]: < 10%
inhibition at 10 µM [32]: < 10%
inhibition at 10 µM [33]: < 10%
inhibition at 10 µM [34]: < 10%
inhibition at 10 µM [35]: < 10%

CCc1cccc2cc(-c3cc(-c4ccc(OC)cc4)[nH]c(=O)c3C#N)c(Cl)nc12 [Compound 4a, 4-(2-Chloro-8-ethylquinolin-3-yl)-6-(4-methoxyphenyl)-2-oxo-1,2-dihydropyridine-3-carbonitrile]
inhibition at 10 µM [1]: 10%
inhibition at 10 µM [2]: < 10%
inhibition at 10 µM [3]: < 10%
inhibition at 10 µM [4]: 12.3%
inhibition at 10 µM [5]: 34.9%
inhibition at 10 µM [6]: 11.4%
inhibition at 10 µM [7]: < 10%
inhibition at 10 µM [8]: 15.4%
inhibition at 10 µM [9]: < 10%
inhibition at 10 µM [10]: < 10%
inhibition at 10 µM [11]: 11.9%
inhibition at 10 µM [12]: < 10%
inhibition at 10 µM [13]: < 10%
inhibition at 10 µM [14]: < 10%
inhibition at 10 µM [15]: < 10%
melting point: 270 to 272 °C
inhibition at 10 µM [16]: < 10%
inhibition at 10 µM [17]: < 10%
inhibition at 10 µM [18]: < 10%
inhibition at 10 µM [19]: < 10%
inhibition at 10 µM [20]: < 10%
inhibition at 10 µM [21]: < 10%
inhibition at 10 µM [22]: < 10%
inhibition at 10 µM [23]: < 10%
inhibition at 10 µM [24]: < 10%
inhibition at 10 µM [25]: < 10%
inhibition at 10 µM [26]: < 10%
inhibition at 10 µM [27]: 21.9%
inhibition at 10 µM [28]: 29.8%
inhibition at 10 µM [29]: 54.7%
growth inhibition (GI%) ([29]; SNB-75, single dose 10 μM): 45.69%
inhibition at 10 µM [30]: < 10%
inhibition at 10 µM [31]: < 10%
inhibition at 10 µM [32]: < 10%
inhibition at 10 µM [33]: < 10%
inhibition at 10 µM [34]: < 10%
inhibition at 10 µM [35]: 16.7%
